In patent US20120022129A1, “Targeting of Histone Deacetylase 2, Protein Kinase CK2, and Nuclear Factor NRF2 For Treatment of Inflammatory Diseases” (priority 2008, published 2012):

How the values were obtained:
Format in all cases: cell-based, human
HDAC2 [1] = assay: Deacetylase activity of immunoprecipitated HDAC2 from H292 cells; conditions: NAC 2 mM 2 h, then CSE 2.5% 0.5 h
Protocol: (§1) A) H292 cells cultured on 8-well chamber slides were treated with 2.5% CSE for 0.5 h or 50 μM Acrolein for 1 h, washed and fixed with 4% PFA. Slides were incubated with HDAC2 and α-tubulin antibodies overnight at […]. Slides were mounted with antifade mounting solution and images analysed by an Olympus inverted microscope. B) H292 cells were transfected with plasmid vector (Ctrl V) or flag-tagged WT HDAC2 (1-488) for 24 h with lipofectamine 2000. Cells were treated with 2.5% CSE for 0.5 h and flag proteins immunoprecipitated using M2 anti-flag antibodies overnight at 4° C. HDAC1 and C) p53 interaction were determined by western blot. D) H292 cells were transfected with plasmid vector (Ctrl V), flag-tagged WT HDAC2 (1-488) or S^394/^411/^422/^424A and 1-400 amino acid HDAC2 mutants for 24 h with lipofectamine 2000. […] Levels of HDAC2 interaction with HDAC1 were determined by western blotting using specific antibodies. […] Levels of phospho-serine and HDAC2 interaction with SAP30, RbAp46/48, MBD3 and p65 were determined by western blotting using specific antibodies respectively. […] Levels of HDAC1 and p65 binding to immunoprecipitated flag-tagged HDAC2 was determined by western blotting. […] Deacetylase activity of immunoprecipitated HDAC2 was determined using a specific HDAC2 deacetylase activity kit. Data expressed as mean±SEM (n=3). *** P<0.001 significant compared to control treatments.

HDAC2 [2] = assay: Serine phosphorylation of immunoprecipitated HDAC2 in H292 cells
Protocol: FIG. 6: CSE induced CK2-dependent HDAC2 phosphorylation in bronchial epithelial and small airway epithelial cells. [A (i)] H292 cells were treated with CSE (2.5%) for 0.5, 1, 2 and 4 h. Immunoprecipitated HDAC2 was analyzed for phosphorylation of serine residues using specific phospho-serine antibodies by SDS polyacrylamide gel. CSE induced significant cyclical phosphorylation of HDAC2 on serine residues at 0.5, 1 and 4 h. [A (ii)] Relative density of phosphor-serine expression normalized to immunoprecipitated HDAC2. [B (i)] […] Immunoprecipitated HDAC2 from whole cell lysates was probed for phosphorylation of serine residues, CSE induced a dose-dependent increase in HDAC2 serine phosphorylation. [B (ii)] Relative density of phospho-serine expression normalized to immunoprecipitated HDAC2. (C) H292 cells were treated with or without specific CK2 inhibitor, TBB. for 1 h, cells were washed with sterile 1×PBS and then treated with freshly prepared CSE (2.5%) for 0.5 h, Immunoprecipitated HDAC2 was assayed for phosphorylation on serine residues. […] (D) Relative density of phosphor-serine expression normalized to immunoprecipitated HDAC2.
FIG. 14: Loss of Serine Sites S^394, S^422, S^424 Abrogates Cigarette Smoke Extract (CSE)-Induced Phosphatase-Independent HDAC2 Phosphorylation. A) Bronchial epithelial H292 cells were transfected with plasmid vector or flag-tagged WT HDAC2 (1-488) for 24 h using lipofectamine 2000 and then treated with or without 2.5% CSE for 0.5 h or B) 50 μM. acrolein for 1 h. Flag-tagged proteins were immunoprecipitated overnight and serine phosphorylation detected by western blots using phospho-serine antibodies. C) Flag-tagged WT HDAC2 was immunoprecipitated from whole cell lysates of H292 cells treated with 2.5% CSE for 0.5 h. Immunoprecipates were then washed and treated with 400 U of λ-phosphatase or buffer alone for 1 h at 30° C. Phosphorylation of serine sites were detected by western blots using anti-serine antibodies. D) H292 cells were transfected with plasmid vector, flag-tagged WT HDAC2 (1-488) or S394A, S394/411/422/424A and 1-400 aa HDAC2 mutants for 24 h with lipofectamine 2000. Cells were then treated with 2.5% CSE for 0.5 h. Serine phosphorylation of immunoprecipitated flag proteins was determined by western blot. E) Phosphatase activity was determined using non-radioactive assay system (Promega). H292 cells were treated with or without 2.5% CSE for 0.5, 2 and 6 h with serine/threonine […] (okadaic acid) used as a positive control. 5 μg protein was incubated with PP2A specific-peptide substrate RRA(pT)VA and reaction buffer for 15 minutes in a 96-well plate. Molybdate dye/additive mixture was added to stop the reaction and color allowed to develop for 15 minutes. Optical density of samples was determined using a microplate reader with a 630 nm filter.
FIG. 18: Protein Kinase CK2 Inhibitors Blocks CSE-Induced HDAC2 Phosphorylation. A) Bronchial epithelial H292 cells transfected with a flag-tagged WT HDAC2 plasmid were treated with 2.5% CSE for 0.5 h. […] B) Relative density of phospho-serine expression normalized to immunoprecipitated HDAC2. Data expressed as mean±SEM (n=3). *** P<0.001, ### P<0.001 significant compared to control treatments.
Cell lysate controls were used.

HDAC2 [3] = assay: Co-immunoprecipitation of flag-tagged HDAC2 with binding partners in H292 cells; conditions: H292, flag-tagged WT HDAC2
Protocol: FIG. 16: HDAC2 serine phosphorylation is associated with increased interaction with catalytic subunits of protein kinase CK2 in response to CSE. A) Bronchial epithelial H292 cells transfected with either a control vector (control V) or flag-tagged WT HDAC2 were treated with 2.5% CSE for 0.5 h. […] C) Bronchial epithelial H292 cells transfected with flag-tagged WT HDAC2 were treated with either 2.5% CSE for 0.5 h, 25 or 50 μM Acrolein for 1 h and 200 μM H202 for 0.5 and 2 h respectively.
A) H292 cells cultured on 8-well chamber slides were treated with 2.5% CSE for 0.5 h or 50 μM Acrolein for 1 h, washed and fixed with 4% PFA. Slides were incubated with HDAC2 and α-tubulin antibodies overnight at […]. Slides were mounted with antifade mounting solution and images analysed by an Olympus inverted microscope. B) H292 cells were transfected with plasmid vector (Ctrl V) or flag-tagged WT HDAC2 (1-488) for 24 h with lipofectamine 2000. Cells were treated with 2.5% CSE for 0.5 h and flag proteins immunoprecipitated using M2 anti-flag antibodies overnight at 4° C. HDAC1 and C) p53 interaction were determined by western blot. D) H292 cells were transfected with plasmid vector (Ctrl V), flag-tagged WT HDAC2 (1-488) or S^394/^411/^422/^424A and 1-400 amino acid HDAC2 mutants for 24 h with lipofectamine 2000. Cells were then exposed to 2.5% CSE for 0.5 h. Levels of HDAC2 interaction with HDAC1 were determined by western blotting using specific antibodies. E) H292 cells were transfected with flag-tagged WT HDAC2 (1-488) for 24 h with lipofectamine 2000. […] Levels of phospho-serine and HDAC2 interaction with SAP30, RbAp46/48, MBD3 and p65 were determined by western blotting using specific antibodies respectively. […] Levels of HDAC1 and p65 binding to immunoprecipitated flag-tagged HDAC2 was determined by western blotting. […] Deacetylase activity of immunoprecipitated HDAC2 was determined using a specific HDAC2 deacetylase activity kit. Data expressed as mean±SEM (n=3). *** P<0.001 significant compared to control treatments.

HDAC2 [4] = assay: HDAC2 cellular localization in H292 cells (immunofluorescence); conditions: acrolein 50 μM, 1 h
Protocol: as §1

CC(=O)N[C@@H](CS)C(=O)O [NAC, N-acetyl cysteine]
CSE-induced decrease in HDAC2 deacetylase activity (HDAC2 [1]): rescued | CSE-induced HDAC2 phosphorylation (HDAC2 [2]; H292, flag-tagged WT HDAC2, NAC 2 mM 2 h, then CSE 2.5% 0.5 h): Inhibiting CSE-induced HDAC 2 phosphorylation | HDAC2 interaction with co-repressor proteins (SAP30, MBD3) and p65 (HDAC2 [3]; NAC 2 mM 2 h, then CSE 2.5% 0.5 h): blocked HDAC2 interaction with co-repressor proteins

C=CC=O [acrolein]
serine phosphorylation of flag-tagged full length HDAC2 (HDAC2 [2]; H292, acrolein 50 μM, 1 h): significantly phosphorylated on serine residues | HDAC2 cellular localization (HDAC2 [4]): remained localized to the nucleus | HDAC2 CK2α′ binding (HDAC2 [3]; acrolein 25 and 50 μM, 1 h): increased HDAC2 CK2α′ binding
